# Experimental data published in patent publication US20160022872A1, “CELL-BASED COMPOSITIONS, CELL-BASED BANDAGE DEVICES AND SYSTEMS AND METHODS OF TREATMENT THEREWITH” (UNIVERSITY OF PITTSBURGH-OF THE COMMONWEALTH SYSTEM OF …, priority 2013, published 2016).
# Entries after “also recorded” stand apart in the source; their conditions may differ. Read-outs that look alike come from different tables or passages of the source.
# How the values were obtained:
# [1] = tested on: imhMSC and prhMSC; details: for toxic effect on MSC (caspase3 activation without FasL): MSC on Collagen I and TNC, no FasL; for effect on survival advantage of TNC and Collagen I in the presence of FasL: prhMSC on Collagen I and TNC, inhibitor 30 minutes prior to and during 8 hours FasL; for cell death / caspase3 activation (FLICA): FasL or CHX and FasL, 8 hours (imhMSC) or 12 hours (prhMSC)
# Experimental: MSCs are most susceptible to cell death via the Fas death pathway. […] Cells were also treated with a low concentration of the protein synthesis inhibitor cycloheximide (CHX) in addition to FasL. Cycloheximide, being a protein synthesis inhibitor, increases cell stress, imitating the starvation stress seen in vivo in a wound setting.
# After preparation of coated surfaces and prior to seeding of MSC, neutralizing antibodies to the EGFL and FNL domains were added for 24 hours Immortalized hMSC were then seeded for 24 hours, kept treated or untreated with FasL for 8 hours, followed by a FLICA assay to test for caspase3 activation.
# We next studied whether TNC contributes to survival of MSCs by sequestering FasL and prevention of FasL from binding its receptor Fas on MSC. We grew MSCs inside two cloning cylinders placed in wells of a 6-well dish, enclosing areas without any ECM, or with Collagen I and TNC, on which imhMSC were grown. One well had Collagen I and TNC coating surrounding the cloning cylinders, covered with media and FasL. The second well had only media with FasL surrounding the cloning cylinders, with no TNC.
# The inhibitors were present during the entire 8 hours of FasL treatment, after which a FLICA assay was performed.
# [2] = tested on: Erk; assay: immunofluorescence for phospho-Erk; type: cell-based, human; details: imhMSC, 0, 30 and 60 minutes
# Experimental: We examined that of Erk Immortalized hMSC were plated on surfaces with Collagen I alone or Collagen I and TNC for 24 hours. After 24 hours, (considered 0 minute), immunofluorescence for phospho-Erk (green fluorescence) was tested either with or without the EGFR inhibitor PD153035.
# [3] = tested on: MSC; assay: inverted centrifugation assay of MSC adhesiveness on coated surfaces; type: cell-based, human; details: 2 hours post-seeding
# Experimental: Tenascin-C or TNC may reduce the number of focal adhesions and decrease cell adhesiveness in several cell types. To test for MSC adhesiveness on TNC, an inverted centrifugation assay was performed 2 hours post-seeding MSC on […] and the number of cells attached after centrifugation was compared to number of cells attached on a similarly coated surface that had not undergone centrifugation. […] To increase adhesiveness of cells on TNC we coated mixed Collagen I, a matrix naturally occurring in the in vivo bone environment and one that promotes MSC attachment and spreading, in a 1:1 ratio with TNC for coating substrates. […] In a number of studies hereof, a combination of Collagen I and TNC was used to increase TNC adherence to cells.
# [4] = tested on: MSC; assay: MSC differentiation on coated surfaces (Von Kossa staining, adipocyte formation); type: cell-based, human
# Description: We then studied whether TNC by itself, in the absence of specific differentiation cues, promotes MSC differentiation. We examined osteoblast or adipose cell formation from MSC grown on TNC and Collagen (Col I), in the presence of either proliferation or differentiation media. […] The matrix mix of TNC and Collagen I also did it interfere with differentiation.
# [5] = tested on: MSC; assay: flow cytometric quantification of FITC/HLA+ cells, MSC survival in wound bed; type: in vivo, mouse; details: days 3, 7 and 21; WT and KO mice
# Description: Male and Female FVB (Friend Virus B-Type) and C57BL/6 mice, between 7-9 weeks of age, were used in a number of studies. After shaving the hair on the back of the mice, 8 mm punch biopsies were created. Wounds were either left untreated or treated with commercially available NEW-SKIN® (a liquid bandage or wound protective barrier available from J&J of New Brunswick, N.J.), PEG-Polymer, PEG-Polymer+TNC, or PEG-Polymer+TNC−MSC. […]
# Flow cytometric quantification of FITC/HLA+cells was used to detect MSC survival in the wound bed. […]
# After shaving the hair on the back of the mice 8 mm punch biopsies were created. […] Animals were euthanized by CO2 inhalation and the wounds assessed. […] Each wound was measured and then removed from the animal, with unwounded skin taken from the contralateral dorsum as a control.
# Flow Cytometry. Twelve-millimeter punch biopsies of the wound and 12-mm punch biopsies of unwounded regions were isolated for quantification of MSC engraftment in wounded skin at days 3, 7, 14, and 21. […] Flow cytometry was performed on an LSR II Cytometer (a flow cytometer system available from BD Biosciences of Franklin Lakes, N.J.) and subsequently analyzed using FOWJO® digital FACS software (available from Tree Star, Inc. of Ashland, Oreg.).
# [6] = tested on: EGFR; assay: immunofluorescence for phospho-EGFR and EEA1; type: cell-based, human
# Experimental: Upon determining that TNC provided a survival effect on MSC in the presence of FasL, and that this mapped to the EGFL, we studied if Tenascin C was able to activate EGFR on the surface of MSC and if this activation was sustained. MSCs have low levels of EGFR, which may limit activation by the ultra-low affinity EGFL. In a number of studies, immortalized hMSC were plated on surfaces with Collagen I alone or Collagen I and TNC for 24 hours. After 24 hours, (considered 0 minute), immunofluorescence for phospho-EGFR (red fluorescence) and the early endosome marker EEA1 (green fluorescence) was done on these samples. […] Immortalized hMSC seeded on Collagen I were treated with EGF, the prototypal EGFR ligand, known to cause EGFR internalization for 15, 30 and 60 minutes prior to fixation, to induce phosphorylation of EGFR. At the same time points, immunofluorescence was done on cells grown on Collagen I and TNC.
# [7] = tested on: imhMSC and prhMSC; assay: MSC proliferation on extracellular matrix coatings; type: cell-based, human; details: 96 hours post-seeding
# Description: During wound healing, endogenous MSC proliferation and differentiation are temporally distinct events. […] We tested if the extracellular matrix or ECM factors had any influence on MSC proliferation.
compound,measurement,setting,value
"COc1cc2ncnc(Nc3cccc(Br)c3)c2cc1OC [PD153035, reference compound]",toxic effect on MSC (caspase3 activation without FasL),[1],did not have a toxic effect on cells
same,effect on survival advantage of TNC and Collagen I in the presence of FasL,[1],blocked the survival advantage
same,phospho-Erk activation,[2],reduced but not completely inhibited
"TNC: the matrikine tenascin C, containing EGF-like and fibronectin like repeats",MSC adhesiveness,[3],detach from surfaces after inverted centrifugation; also recorded: only half as adhesive as cells on Collagen I
same,adipocyte formation,[4]; in the presence of adipogenic inducers,did not prevent adipocyte formation
same,osteogenic differentiation,[4]; in the presence of differentiation media,did not interfere with osteogenic differentiation
same,adipocyte formation,"[4]; on its own, no inducers",did not promote adipocyte formation on its own
same,cell death / caspase3 activation (FLICA),[1],did not show caspase3 activation
same,sequestering or neutralizing of FasL,"[1]; cloning cylinder experiment, imhMSC",neither sequestering nor neutralizing FasL
same,optimal TNC coating to promote MSC survival in the presence of FasL,"[1]; dose response, TUNEL and FLICA staining",1 Lg/cm2
same,phospho-Erk activation,[2],"activate phosho-Erk in MSC at 0, 30 and 60 minutes"
same,MSC survival in wound bed over time,[5],survive more and longer
"COc1cccc(-c2cc(=O)c3ccccc3o2)c1N [PD98059, reference compound]",toxic effect on MSC (caspase3 activation without FasL),[1],did not have a toxic effect on cells
same,effect on survival advantage of TNC and Collagen I in the presence of FasL,[1],blocked the survival advantage
"O=c1cc(N2CCOCC2)oc2c(-c3ccccc3)cccc12 [LY294002, reference compound]",toxic effect on MSC (caspase3 activation without FasL),[1],did not have a toxic effect on cells
"EGF: the prototypal EGFR ligand, known to cause EGFR internalization",phospho-EGFR staining over time,"[6]; imhMSC, 15, 30 and 60 minutes",stained positive for phospho-EGFR after 15 minutes of treatment; also recorded: very little phospho-EGFR signal
Collagen I: a matrix naturally occurring in the in vivo bone environment that promotes MSC attachment and spreading,MSC proliferation relative to cell numbers initially plated,[7],promote both imhMSC and prhMSC proliferation
same,hydroxyapatite deposition (Von Kossa staining),[4]; 30 days in proliferation media,neither Collagen I by itself nor TNC and Collagen I caused hydroxyapatite deposition
same,cell death / caspase3 activation (FLICA),[1],did not show protection
same,cell death / caspase3 activation (FLICA),[1]; listed as Collagen I alone,showed caspase 3 activation
same,phospho-EGFR staining,"[6]; imhMSC, 24 hours after plating (0 minute)",did not show phospho-EGFR staining
same,phospho-Erk activation,[2],significantly less than that with TNC
